Results: ChEMBL document CHEMBL4219053, “Antiobesity and emetic effects of a short-length peptide YY analog and its PEGylated and alkylated derivatives” (Bioorg Med Chem, 2018)

Columns and labels:
[1] = biological target: T1, Neuropeptide Y receptor type 2 (Homo sapiens, UniProt P49146); assay: Displacement of [125I]-PYY from human neuropeptide Y2 receptor expressed in CHO cell membranes incubated for 60 mins by TopCount micro scintillation analysis
T1 sequence (P49146 whole entry): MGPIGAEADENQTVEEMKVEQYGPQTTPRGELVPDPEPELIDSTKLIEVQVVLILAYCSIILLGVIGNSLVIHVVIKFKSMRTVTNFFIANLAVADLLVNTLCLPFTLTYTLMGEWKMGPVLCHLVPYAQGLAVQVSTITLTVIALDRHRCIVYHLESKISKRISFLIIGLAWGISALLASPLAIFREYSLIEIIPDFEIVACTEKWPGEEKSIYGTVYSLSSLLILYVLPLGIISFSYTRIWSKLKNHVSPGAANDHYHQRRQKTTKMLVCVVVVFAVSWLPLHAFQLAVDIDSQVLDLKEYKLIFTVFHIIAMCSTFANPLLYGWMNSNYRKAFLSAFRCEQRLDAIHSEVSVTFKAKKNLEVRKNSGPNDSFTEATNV

Mus musculus [2] = assay: Anorectic activity in C57BL/6J mouse assessed as inhibition of food intake at 30 nmol/kg, sc qd for 3 days relative to control; type: functional; details: 72 h
Mus musculus [3] = assay: Antiobesity activity in DIO C57BL/6J mouse assessed as reduction in body weight at 10 nmol/kg, sc qd for 2 weeks; type: functional; parameters: scale not given: the % may be the effect or the level left
Mus musculus [4] = assay: Antiobesity activity in DIO C57BL/6J mouse assessed as reduction in body weight at 30 nmol/kg, sc qd for 2 weeks; type: functional; parameters: scale not given: the % may be the effect or the level left
[5] = Solubility of the compound in water; type: physicochemical; details: buffer
Canis familiaris [6] = assay: Emetic effect in Beagle dog at 3 nmol/kg, sc measured up to 4 hrs; type: ADME, organism-based, Canis lupus familiaris; details: in vivo
[7] = AUC (0 to 48 hrs) in C57BL/6J mouse at 10 nmol/kg, sc by LC-MS/MS analysis; type: ADME, organism-based; parameters: dose 10 nmol/kg, time < 48 hr, route subcutaneous; details: in vivo
[8] = Tmax in C57BL/6J mouse at 10 nmol/kg, sc by LC-MS/MS analysis; type: ADME, organism-based; details: in vivo
[9] = Cmax in C57BL/6J mouse at 10 nmol/kg, sc by LC-MS/MS analysis; type: ADME, organism-based; parameters: dose 10 nmol/kg, route subcutaneous; details: in vivo
[10] = Mean residence time in C57BL/6J mouse at 10 nmol/kg, sc by LC-MS/MS analysis; type: ADME, organism-based; details: in vivo
[11] = Cmax in Beagle dog at 3 nmol/kg, sc; type: ADME, organism-based, Canis lupus familiaris; parameters: dose 3 nmol/kg, route subcutaneous; details: in vivo
[12] = Tmax in Beagle dog at 3 nmol/kg, sc; type: ADME, organism-based, Canis lupus familiaris; details: in vivo
Canis familiaris [13] = assay: Emetic effect in Beagle dog at 3 nmol/kg, sc measured after 4 to 8 hrs; type: ADME, organism-based, Canis lupus familiaris; details: in vivo
Mus musculus [14] = assay: Antiobesity activity in DIO C57BL/6J mouse assessed as reduction in body weight at 3 nmol/kg, sc qd for 2 weeks; type: functional; parameters: scale not given: the % may be the effect or the level left

Row | Structure (SMILES) | IC50 [1] [nM] | solubility [5] | inhibition in vivo at 0.03 µmol/kg (Mus musculus [2]) [%] | Activity (Mus musculus [3]) [%] | Activity (Mus musculus [4]) [%] | other results
1 | CC[C@](C)(NC(=O)[C@H]1C[C@H](O)CN1C(=O)[C@H](CO)NC(=O)c1c[nH]cn1)C(=O)N[C@@H](Cc1ccncc1)C(=O)N[C@@H](CC1CCCCC1)C(=O)N[C@@H](CC(C)(C)C)C(=O)N[C@@H](CC(N)=O)C(=O)N[C@@H](CCCCNC(=O)COCC(=O)NCCCOCCOCCOCCCNC(=O)CC[C@H](NC(=O)[C@H]1CC[C@H](CNC(=O)CCCCCCCCCCCCCCCCCCC(=O)O)CC1)C(=O)O)C(=O)NC(C)(C)C(=O)N[C@H](C(=O)N[C@@H](CCCNC(=N)N)C(=O)N[C@@H](CCC(N)=O)C(=O)N[C@@H](CCCNC(=N)N)C(=O)N[C@@H](CC1CCCCC1)C(N)=O)[C@@H](C)O | 24 |  | 30 |  |  | 
2 | CC[C@](C)(NC(=O)[C@H]1C[C@H](O)CN1C(=O)[C@H](CO)NC(=O)COCC(=O)NCCCOCCOCCOCCCNC(=O)CC[C@H](NC(=O)[C@H]1CC[C@H](CNC(=O)CCCCCCCCCCCCCCCCCCC(=O)O)CC1)C(=O)O)C(=O)N[C@@H](Cc1ccncc1)C(=O)N[C@@H](CC1CCCCC1)C(=O)N[C@@H](CC(C)(C)C)C(=O)N[C@@H](CC(N)=O)C(=O)N[C@@H](CCCCN)C(=O)NC(C)(C)C(=O)N[C@H](C(=O)N[C@@H](CCCNC(=N)N)C(=O)N[C@@H](CCC(N)=O)C(=O)N[C@@H](CCCNC(=N)N)C(=O)N[C@@H](CC1CCCCC1)C(N)=O)[C@@H](C)O | 13 |  | 47.8 |  | -15.1 | 
3 | CC[C@](C)(NC(=O)[C@H]1C[C@H](O)CN1C(=O)[C@H](CO)NC(=O)COCC(=O)NCCCOCCOCCOCCCNC(=O)CC[C@H](NC(=O)[C@H]1CC[C@H](CNC(=O)CCCCCCCCCCCCCCCCCCC(=O)O)CC1)C(=O)O)C(=O)N[C@@H](Cc1ccncc1)C(=O)N[C@@H](CC1CCCCC1)C(=O)N[C@@H](CC(C)(C)C)C(=O)N[C@@H](CC(N)=O)C(=O)N[C@@H](CCCCNC(=O)C1CCNCC1)C(=O)NC(C)(C)C(=O)N[C@H](C(=O)N[C@@H](CCCNC(=N)N)C(=O)N[C@@H](CCC(N)=O)C(=O)N[C@@H](CCCNC(=N)N)C(=O)N[C@@H](CC1CCCCC1)C(N)=O)[C@@H](C)O | 7.6 |  | 52.8 |  | -22.3 | 
4 | CC[C@](C)(NC(=O)[C@H]1C[C@H](O)CN1C(=O)[C@H](CO)NC(=O)COCC(=O)NCCCOCCOCCOCCCNC(=O)CC[C@H](NC(=O)[C@H]1CC[C@H](CNC(=O)CCCCCCCCCCCCCCCCCCC(=O)O)CC1)C(=O)O)C(=O)N[C@@H](Cc1ccncc1)C(=O)N[C@@H](CC1CCCCC1)C(=O)N[C@@H](CC(C)(C)C)C(=O)N[C@@H](CC(N)=O)C(=O)N[C@@H](CCCCNC(C)=O)C(=O)NC(C)(C)C(=O)N[C@H](C(=O)N[C@@H](CCCNC(=N)N)C(=O)N[C@@H](CCC(N)=O)C(=O)N[C@@H](CCCNC(=N)N)C(=O)N[C@@H](CC1CCCCC1)C(N)=O)[C@@H](C)O | 7.6 |  | 43 |  | -6.1 | 
5 | C[C@@H](O)[C@H](NC(=O)C(C)(C)NC(=O)[C@H](CCCCNC(=O)[C@@H](N)CCCCNC(=O)COCC(=O)NCCCOCCOCCOCCCNC(=O)CC[C@H](NC(=O)[C@H]1CC[C@H](CNC(=O)CCCCCCCCCCCCCCCCCCC(=O)O)CC1)C(=O)O)NC(=O)[C@H](CC(N)=O)NC(=O)C(C)(C)NC(=O)[C@H](CC1CCCCC1)NC(=O)[C@H](Cc1ccncc1)NC(=O)[C@H](CCCNC(=N)N)NC(=O)[C@H]1C[C@H](O)CN1C(=O)[C@H](CO)NC(=O)c1c[nH]cn1)C(=O)N[C@@H](CCCNC(=N)N)C(=O)N[C@@H](CCC(N)=O)C(=O)N[C@@H](CCCNC(=N)N)C(=O)N[C@@H](CC1CCCCC1)C(N)=O | 8 | Soluble | 61 | -16.5 | -20.7 | Activity (Canis familiaris [6]): Non-Toxic; AUC(0-t) at 48 h [7]: 0.373 µM·h; Tmax [8]: 4 h; Cmax [9]: 32 nM; MRT [10]: 9.3 h; Cmax [11]: 10.8 nM; Tmax [12]: 24 h; Activity (Canis familiaris [13]): Toxic; Activity (Mus musculus [14]): -8%
6 | CC[C@](C)(NC(=O)[C@H]1C[C@H](O)CN1C(=O)[C@H](CO)NC(=O)c1c[nH]cn1)C(=O)N[C@@H](Cc1ccncc1)C(=O)N[C@@H](CC1CCCCC1)C(=O)N[C@@H](CC(C)(C)C)C(=O)N[C@@H](CC(N)=O)C(=O)N[C@@H](CCCCNC(=O)[C@@H](N)CCCCNC(=O)COCC(=O)NCCCOCCOCCOCCCNC(=O)CC[C@H](NC(=O)[C@H]1CC[C@H](CNC(=O)CCCCCCCCCCCCCCCCCCC(=O)O)CC1)C(=O)O)C(=O)NC(C)(C)C(=O)N[C@H](C(=O)N[C@@H](CCCNC(=N)N)C(=O)N[C@@H](CCC(N)=O)C(=O)N[C@@H](CCCNC(=N)N)C(=O)N[C@@H](CC1CCCCC1)C(N)=O)[C@@H](C)O | 13 | Insoluble | 67 |  |  | 

Now those with a lower IC50 [1], led by results:

Row | IC50 [1] [nM] | solubility [5] | Structure (SMILES) | inhibition in vivo at 0.03 µmol/kg (Mus musculus [2]) [%] | Activity (Mus musculus [3]) [%] | Activity (Mus musculus [4]) [%] | other results
7 | 4.5 |  | C[C@@H](O)[C@H](NC(=O)C(C)(C)NC(=O)[C@H](CCCCNC(=O)C1CCNCC1)NC(=O)[C@H](CC(N)=O)NC(=O)C(C)(C)NC(=O)[C@H](CC1CCCCC1)NC(=O)[C@H](Cc1ccncc1)NC(=O)[C@H](CCCNC(=N)N)NC(=O)[C@H]1C[C@H](O)CN1C(=O)[C@H](CO)NC(=O)COCC(=O)NCCCOCCOCCOCCCNC(=O)CC[C@H](NC(=O)[C@H]1CC[C@H](CNC(=O)CCCCCCCCCCCCCCCCCCC(=O)O)CC1)C(=O)O)C(=O)N[C@@H](CCCNC(=N)N)C(=O)N[C@@H](CCC(N)=O)C(=O)N[C@@H](CCCNC(=N)N)C(=O)N[C@@H](CC1CCCCC1)C(N)=O | 67.3 | -11.6 | -17.2 | 
8 | 3.4 | Soluble | C[C@@H](O)[C@H](NC(=O)C(C)(C)NC(=O)[C@H](CCCCNC(=O)[C@@H](N)CCCCNC(=O)COCC(=O)NCCCOCCOCCOCCCNC(=O)CC[C@H](NC(=O)[C@H]1CC[C@H](CNC(=O)CCCCCCCCCCCCCCCCCCC(=O)O)CC1)C(=O)O)NC(=O)[C@H](CC(N)=O)NC(=O)[C@H](CC(C)(C)C)NC(=O)[C@H](CC1CCCCC1)NC(=O)[C@H](Cc1ccncc1)NC(=O)[C@H](CCCNC(=N)N)NC(=O)[C@H]1C[C@H](O)CN1C(=O)[C@H](CO)NC(=O)c1c[nH]cn1)C(=O)N[C@@H](CCCNC(=N)N)C(=O)N[C@@H](CCC(N)=O)C(=O)N[C@@H](CCCNC(=N)N)C(=O)N[C@@H](CC1CCCCC1)C(N)=O | 58 |  | -23.1 | 
9 | 0.19 |  | CCCCCCCCCCCCCCCC(=O)NC[C@H]1CC[C@H](C(=O)N[C@@H](CCC(=O)NCCCOCCOCCOCCCNC(=O)COCC(=O)NCCCC[C@H](N)C(=O)NCCCC[C@H](NC(=O)[C@H](CC(N)=O)NC(=O)C(C)(C)NC(=O)[C@H](CC2CCCCC2)NC(=O)[C@H](Cc2ccncc2)NC(=O)[C@H](CCCNC(=N)N)NC(=O)[C@H]2C[C@H](O)CN2C(=O)[C@H](CO)NC(=O)c2c[nH]cn2)C(=O)NC(C)(C)C(=O)N[C@H](C(=O)N[C@@H](CCCNC(=N)N)C(=O)N[C@@H](CCC(N)=O)C(=O)N[C@@H](CCCNC(=N)N)C(=O)N[C@@H](CC2CCCCC2)C(N)=O)[C@@H](C)O)C(=O)O)CC1 | 36 |  |  | 
10 | 0.19 |  | CCCCCCCCCCCCCCCC(=O)NC[C@H]1CC[C@H](C(=O)N[C@@H](CCC(=O)NCCCOCCOCCOCCCNC(=O)COCC(=O)N[C@@H](CO)C(=O)N2C[C@@H](O)C[C@@H]2C(=O)N[C@@H](CCCNC(=N)N)C(=O)N[C@@H](Cc2ccncc2)C(=O)N[C@@H](CC2CCCCC2)C(=O)NC(C)(C)C(=O)N[C@@H](CC(N)=O)C(=O)N[C@@H](CCCCNC(=O)C2CCNCC2)C(=O)NC(C)(C)C(=O)N[C@H](C(=O)N[C@@H](CCCNC(=N)N)C(=O)N[C@@H](CCC(N)=O)C(=O)N[C@@H](CCCNC(=N)N)C(=O)N[C@@H](CC2CCCCC2)C(N)=O)[C@@H](C)O)C(=O)O)CC1 | 68.3 | -19 |  | AUC(0-t) at 48 h [7]: 0.0122 µM·h; Tmax [8]: 1 h; Cmax [9]: 3.6 nM; MRT [10]: 1.7 h; Cmax [11]: 0.9 nM; Tmax [12]: 2.5 h; Activity (Mus musculus [14]): -18.4%
